Source: US20250044306A1, “Methods for Determining Opioid Responsiveness in the Treatment of Pain” (priority 2021, published 2025)
Values joined by “and” are separate entries in the source; they are usually repeats but may differ in a detail not shown here. Equal entries are not always repeated.

Columns and labels:
[1] = test system: thermal hyperalgesia in SCI animals; test: Tail flick thermal nociception in contusion SCI rats; assay type: in vivo, Long-Evans rats; settings: for % analgesia (maximum possible effect, MPE), tail flick latency: drug alone, s.c. 30 mins prior to testing, morphine 2 mg/kg; for % Analgesia scores, injection of drug alone, compared to morphine alone (52.01%) / % analgesia (MPE), tail flick latency, drug added to morphine: rat, in vivo
[2] = test system: thermal hyperalgesia in SCI animals; settings: rodent SCI model; Rodgers et al. 2019, 2020; cited from earlier work
[3] = test system: patients with pain; settings: clinical study using morphine to treat pain; cited from earlier work
[4] = biological target: DIR receptor (Homo sapiens, UniProt P21728); settings: Millan, Maiofiss et al. 2002; Chen, Collins et al. 2008; cited from earlier work
Sequence of DIR receptor (P21728 whole entry): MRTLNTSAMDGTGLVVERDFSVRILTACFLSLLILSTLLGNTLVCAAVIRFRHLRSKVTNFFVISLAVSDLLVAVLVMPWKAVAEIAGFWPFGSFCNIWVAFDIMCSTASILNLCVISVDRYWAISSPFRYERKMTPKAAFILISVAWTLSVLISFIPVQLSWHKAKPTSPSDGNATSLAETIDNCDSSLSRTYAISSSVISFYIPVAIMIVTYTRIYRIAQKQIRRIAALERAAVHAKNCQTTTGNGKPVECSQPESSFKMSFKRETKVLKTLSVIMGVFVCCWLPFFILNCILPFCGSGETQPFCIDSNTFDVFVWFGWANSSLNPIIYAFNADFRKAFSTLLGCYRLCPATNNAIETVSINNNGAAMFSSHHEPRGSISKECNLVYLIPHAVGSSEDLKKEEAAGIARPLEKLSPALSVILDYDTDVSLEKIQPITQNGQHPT

[5] = morphine nonresponsive SCI animals (n=18), pramipexole 0.1 mg/kg, SCH 39166 0.1 mg/kg

CN1CCc2cc(Cl)c(O)cc2[C@H]2c3ccccc3CC[C@@H]21 [SCH 39166]
% analgesia (maximum possible effect, MPE), tail flick latency [1, 5]: −37.5%±6.99
% Analgesia scores, injection of drug alone, compared to morphine alone (52.01%) [1]: −21.07%±10.46
% analgesia (MPE), tail flick latency, drug added to morphine [1]: 18.79%±13.547 and 29.56%+11.51

CN1CC[C@]23c4c5ccc(O)c4O[C@H]2[C@@H](O)C=C[C@H]3[C@H]1C5 [morphine]
Share of SCI animals in which an acute injection of morphine provided analgesia ([1]; morphine 2 mg/kg s.c., n=8 of 26 SCI animals): one third
% analgesia (maximum possible effect, MPE), tail flick latency [1, 5]: −24.48%±6.241
% analgesia (maximum possible effect, MPE), tail flick latency ([1]; morphine responsive SCI animals (n=8)): 52.01%±3.494
Share of SCI animals responsive to morphine (earlier studies) [2]: ⅓ and one third
Patients who continued morphine treatment for pain management for more than 12 months [3]: 15%
Patients who failed to respond to morphine treatment [3]: more than 50%
Binding to the DIR receptor [4]: neither morphine nor pramipexole bind to the DIR receptor

CCCN[C@H]1CCc2nc(N)sc2C1 [pramipexole]
% analgesia (maximum possible effect, MPE), tail flick latency [1, 5]: −7.27%±11.06
% Analgesia scores, injection of drug alone, compared to morphine alone (52.01%) [1]: 12.87%±15.84
% analgesia (MPE), tail flick latency, drug added to morphine [1]: 96.98%±1.985 and 64.38%±10.37
